Laboratory results as given in PubChem BioAssay AID2060898 (Molecular Pharmacology Branch, DTP, NCI, 2025).

System: 616215-338-R-J1-PDC complex spheroid viability
Assay: Anticancer human tumor 616215-338-R-J1-PDC patient-derived colon adenocarcinoma cell line growth inhibition [RAS]
Conditions: for IC50: curve of first compound; for viability, T/C: stronger effect = lower value
From the text: RAS pathway inhibitors in Combinations in Complex Spheroids
A high-throughput screen of multi-cell type tumor spheroids was designed to identify active combinations of RAS pathway inhibitors and targeted small molecules. Complex spheroids include a stromal component modeled by human endothelial cells (HUVEC) and fibroblasts modeled by human mesenchymal stem cells (MSCs). The concentration ranges selected for each drug and investigational agent were based upon clinically achievable concentrations if the clinical Cmax of the agent was known.
Compounds. The drugs and investigational agents: abemaciclib (NSC768073), cobimetinib (NSC768068), divarasib (GDC6063, NSC841802), docetaxel (NSC628503), GDC-1971 (RLY-1971, NSC841576), gemcitabine (NSC613327), inavolisib (NSC800729), ipatasertib (NSC767898), KB-0742 (NSC834161), MRTX-1133 (NSC836407), osimertinib (NSC779217), RMC-4630 (NSC839698), RMC-6236 (NSC851965), RMC-6291 (NSC852671), Ro-3306 (NSC812927), sapanisertib (NSC764658), SN-38 (NSC673596), staurosporine (NSC755774), SY5609 (NSC837396), and tovorafenib (DAY101, NSC766906), were obtained from the National Cancer Institute (NCI) Developmental Therapeutics Program Chemical Repository. The FDA-approved anticancer drug set is available from the NCI Developmental Therapeutics Program. […] The stock solutions were prepared in dimethyl sulfoxide (DMSO, Sigma-Aldrich, St. Louis, MO, cat. D2650) at 800-fold the tested concentration and stored at -70 degrees C prior to their use. All drugs and investigational agents were tested over a range starting from a high concentration at or near the clinical Cmax and decreasing in half-log increments. If the clinical Cmax for an agent had not been determined, the highest concentration tested was 10 microM.
Cell Culture. All cells were maintained in an incubator at 37 degrees C and 5% CO2 with 95% humidity. The PDC lines were cultured according to standard operating procedures established by the NCI PDMR. All PDCs were thawed and cultured in Matrigel-coated flasks prepared with a working solution of 1X Ham's F-12 nutrient mix, without supplementation (Invitrogen, Waltham, MA, cat. 11765054), 100 U/mL penicillin-streptomycin (Invitrogen, cat. 15140122), and 2.5% Matrigel (Corning Inc., Corning, NY, cat. 354248) for the first three passages. The 362531-283-R-J2-PDC and 782815-120-R-J1-PDC lines were cultured in 6C/Colon 1B media, which includes advanced DMEM/F-12 (Thermo Fisher Scientific, cat. 12634028), 10 mM HEPES (Thermo Fisher Scientific, cat. 15630080), 1X GlutaMAX supplement (Thermo Fisher Scientific, cat. 35050061), 0.1 mg/mL primocin (InvivoGen, San Diego, CA, cat. ant-pm-2), 10% defined fetal bovine serum, heat inactivated (HyClone Laboratories Inc., Logan, UT, cat. SH30070.03HI), 50% L-WRN conditioned media (ATCC, cat. CRL-3276), 1.25 mM N-Acetyl-L-cysteine (Sigma-Aldrich, cat. A9165), 10 mM nicotinamide (Sigma-Aldrich, cat. N0636), 1X B-27 supplement (Thermo Fisher Scientific, cat. 17504044), 1X N-2 supplement (Thermo Fisher Scientific, cat. 17502048), 50 ng/mL human EGF (Thermo Fisher Scientific, cat. PHG0311), and 10 microM Y-27632 dihydrochloride (Tocris Bioscience, cat. 1254). The K12877-001-R-J1-PDC line was cultured in 6I media, which includes all 6C/Colon 1B media plus 10 ng/mL human FGF-10 (PeproTech, cat. 100-26), 1 ng/mL human FGF-2 (PeproTech, cat. 100-18B), 1 µM prostaglandin E2 (Tocris Bioscience, cat. 2296), […] hydrocortisone (Sigma-Aldrich, cat. H4001), and […] bovine insulin (Sigma-Aldrich, cat. I6634). The K86415-001-R-J1-PDC line was cultured in 6D media, which includes all 6C/Colon 1B media components minus the L-WRN conditioned media. The 485176-168-R4-J1-PDC was cultured in PANC media, which includes all 6C/Colon 1B media plus 100 ng/mL human FGF-10 (PeproTech, cat. 100-26), 500 nM SB-431542 (Selleckchem, cat. S1067), and 10 nM gastrin (Tocris Bioscience, cat. 3006). […]

[1] = second compound 0.0316 µM, first compound 0.0316 µM
[2] = second compound 0.0316 µM, first compound 0.1 µM
[3] = second compound 0.0316 µM, first compound 0.316 µM
[4] = second compound 0.0316 µM, first compound 1 µM
[5] = second compound 0.0316 µM, first compound 3.16 µM
[6] = second compound 0.0316 µM, first compound 10 µM
[7] = second compound 0.1 µM, first compound 0.0316 µM
[8] = second compound 0.1 µM, first compound 0.1 µM
[9] = second compound 0.1 µM, first compound 0.316 µM
[10] = second compound 0.1 µM, first compound 1 µM
[11] = second compound 0.1 µM, first compound 3.16 µM
[12] = second compound 0.1 µM, first compound 10 µM
[13] = second compound 0.316 µM, first compound 0.0316 µM
[14] = second compound 0.316 µM, first compound 0.1 µM
[15] = second compound 0.316 µM, first compound 0.316 µM
[16] = second compound 0.316 µM, first compound 1 µM
[17] = second compound 0.316 µM, first compound 3.16 µM
[18] = second compound 0.316 µM, first compound 10 µM
[19] = second compound 1 µM, first compound 0.0316 µM
[20] = second compound 1 µM, first compound 0.1 µM
[21] = second compound 1 µM, first compound 0.316 µM
[22] = second compound 1 µM, first compound 1 µM
[23] = second compound 1 µM, first compound 3.16 µM
[24] = second compound 1 µM, first compound 10 µM
[25] = second compound 3.16 µM, first compound 0.0316 µM
[26] = second compound 3.16 µM, first compound 0.1 µM
[27] = second compound 3.16 µM, first compound 0.316 µM
[28] = second compound 3.16 µM, first compound 1 µM
[29] = second compound 3.16 µM, first compound 3.16 µM
[30] = second compound 3.16 µM, first compound 10 µM
[31] = second compound 10 µM, first compound 0.0316 µM
[32] = second compound 10 µM, first compound 0.1 µM
[33] = second compound 10 µM, first compound 0.316 µM
[34] = second compound 10 µM, first compound 1 µM
[35] = second compound 10 µM, first compound 3.16 µM
[36] = second compound 10 µM, first compound 10 µM
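Also: spheroids exposed to agents for seven days before viability readout.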
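For viability, T/C in this document: 100% = DMSO vehicle control viability.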

## CC1(O)CCCC1n1c(=O)c(C(F)F)cc2cnc(NC3CCN(S(C)(=O)=O)CC3)nc21 (stereo unspecified) + C#Cc1c(F)ccc2cc(O)cc(-c3ncc4c(N5CC6CCC(C5)N6)nc(OCC56CCCN5CC(F)C6)nc4c3F)c12
Second compound 0.0316 µM
  IC50: 1070 nM
Second compound 0.1 µM
  IC50: 924 nM
Second compound 0.316 µM
  IC50: 833 nM
Second compound 1 µM
  IC50: 255 nM
Second compound 3.16 µM
  IC50: 132 nM
Second compound 10 µM
  IC50: 44 nM
[1]
  viability, T/C: 110%
[2]
  viability, T/C: 114%
[3]
  viability, T/C: 53.5%
[4]
  viability, T/C: 49.1%
[5]
  viability, T/C: 45.4%
[6]
  viability, T/C: 1.06%
[7]
  viability, T/C: 107%
[8]
  viability, T/C: 118%
[9]
  viability, T/C: 50.2%
[10]
  viability, T/C: 46.8%
[11]
  viability, T/C: 39.4%
[12]
  viability, T/C: 0.75%
[13]
  viability, T/C: 117%
[14]
  viability, T/C: 112%
[15]
  viability, T/C: 54.5%
[16]
  viability, T/C: 44%
[17]
  viability, T/C: 37.9%
[18]
  viability, T/C: 2.34%
[19]
  viability, T/C: 111%
[20]
  viability, T/C: 94.2%
[21]
  viability, T/C: 38.8%
[22]
  viability, T/C: 45.9%
[23]
  viability, T/C: 50.5%
[24]
  viability, T/C: 0.81%
[25]
  viability, T/C: 90.4%
[26]
  viability, T/C: 49.9%
[27]
  viability, T/C: 29.8%
[28]
  viability, T/C: 35.8%
[29]
  viability, T/C: 31.4%
[30]
  viability, T/C: 2.44%
[31]
  viability, T/C: 59.5%
[32]
  viability, T/C: 23.7%
[33]
  viability, T/C: 26.1%
[34]
  viability, T/C: 22.2%
[35]
  viability, T/C: 21.8%
[36]
  viability, T/C: 1.18%

## CCN1CCN(Cc2ccc(Nc3ncc(F)c(-c4cc(F)c5nc(C)n(C(C)C)c5c4)n3)nc2)CC1 + C#Cc1c(F)ccc2cc(O)cc(-c3ncc4c(N5CC6CCC(C5)N6)nc(OCC56CCCN5CC(F)C6)nc4c3F)c12
Second compound 0.0316 µM
  IC50: > 1000 nM
Second compound 0.1 µM
  IC50: > 1000 nM
Second compound 0.316 µM
  IC50: 874 nM
Second compound 1 µM
  IC50: 693 nM
Second compound 3.16 µM
  IC50: 175 nM
Second compound 10 µM
  IC50: 30.9 nM
Second compound 0.0316 µM, first compound 0.00316 µM
  viability, T/C: 96.4%
Second compound 0.0316 µM, first compound 0.01 µM
  viability, T/C: 117%
[1]
  viability, T/C: 120%
[2]
  viability, T/C: 108%
[3]
  viability, T/C: 131%
[4]
  viability, T/C: 53.2%
Second compound 0.1 µM, first compound 0.00316 µM
  viability, T/C: 97.9%
Second compound 0.1 µM, first compound 0.01 µM
  viability, T/C: 110%
[7]
  viability, T/C: 113%
[8]
  viability, T/C: 124%
[9]
  viability, T/C: 129%
[10]
  viability, T/C: 50.8%
Second compound 0.316 µM, first compound 0.00316 µM
  viability, T/C: 105%
Second compound 0.316 µM, first compound 0.01 µM
  viability, T/C: 110%
[13]
  viability, T/C: 121%
[14]
  viability, T/C: 120%
[15]
  viability, T/C: 112%
[16]
  viability, T/C: 41.7%
Second compound 1 µM, first compound 0.00316 µM
  viability, T/C: 120%
Second compound 1 µM, first compound 0.01 µM
  viability, T/C: 118%
[19]
  viability, T/C: 130%
[20]
  viability, T/C: 88%
[21]
  viability, T/C: 74.2%
[22]
  viability, T/C: 39.7%
Second compound 3.16 µM, first compound 0.00316 µM
  viability, T/C: 90.8%
Second compound 3.16 µM, first compound 0.01 µM
  viability, T/C: 98.1%
[25]
  viability, T/C: 70%
[26]
  viability, T/C: 58.2%
[27]
  viability, T/C: 44.6%
[28]
  viability, T/C: 30.9%
Second compound 10 µM, first compound 0.00316 µM
  viability, T/C: 76.1%
Second compound 10 µM, first compound 0.01 µM
  viability, T/C: 58.5%
[31]
  viability, T/C: 51.9%
[32]
  viability, T/C: 35.5%
[33]
  viability, T/C: 39.3%
[34]
  viability, T/C: 23.9%

## C[C@@H](NC(=O)c1ncnc(N)c1Cl)c1ncc(C(=O)Nc2cc(C(F)(F)F)c(Cl)cn2)s1 + C#Cc1c(F)ccc2cc(O)cc(-c3ncc4c(N5CC6CCC(C5)N6)nc(OCC56CCCN5CC(F)C6)nc4c3F)c12
Second compound 0.0316 µM
  IC50: > 10000 nM
Second compound 0.1 µM
  IC50: > 10000 nM
Second compound 0.316 µM
  IC50: 9710 nM
Second compound 1 µM
  IC50: 5990 nM
Second compound 3.16 µM
  IC50: 3610 nM
Second compound 10 µM
  IC50: 758 nM
[1]
  viability, T/C: 120%
[2]
  viability, T/C: 109%
[3]
  viability, T/C: 109%
[4]
  viability, T/C: 109%
[5]
  viability, T/C: 86.8%
[6]
  viability, T/C: 55.2%
[7]
  viability, T/C: 104%
[8]
  viability, T/C: 111%
[9]
  viability, T/C: 108%
[10]
  viability, T/C: 109%
[11]
  viability, T/C: 90.8%
[12]
  viability, T/C: 52.2%
[13]
  viability, T/C: 111%
[14]
  viability, T/C: 113%
[15]
  viability, T/C: 121%
[16]
  viability, T/C: 117%
[17]
  viability, T/C: 87.9%
[18]
  viability, T/C: 49%
[19]
  viability, T/C: 109%
[20]
  viability, T/C: 112%
[21]
  viability, T/C: 108%
[22]
  viability, T/C: 91.5%
[23]
  viability, T/C: 68.3%
[24]
  viability, T/C: 35.8%
[25]
  viability, T/C: 99.3%
[26]
  viability, T/C: 111%
[27]
  viability, T/C: 72.3%
[28]
  viability, T/C: 82.2%
[29]
  viability, T/C: 52.2%
[30]
  viability, T/C: 24.3%
[31]
  viability, T/C: 84.3%
[32]
  viability, T/C: 69.7%
[33]
  viability, T/C: 67.2%
[34]
  viability, T/C: 46.4%
[35]
  viability, T/C: 24.8%
[36]
  viability, T/C: 18.7%
